Test results reported in patent publication US6063814A, “Phorbol esters as anti-neoplastic and white blood cell elevating agents” (priority 1997, dated 2000).
Where “and” joins values, the source holds several entries; their conditions need not be identical. Identical values can stand only once. Entries after “also recorded” stand apart in the source; their conditions may differ.

Tested on: White Blood Cell (WBC)
Assay: TPA induced white blood cell changes in patients with solid tumors undergoing chemotherapy
Assay type: in vivo, humans
Protocol: TPA solution in a sterile syringe was injected into 200 ml of saline and mixed well for i.v. infusion.
Patients undergoing chemotherapy for the treatment of solid tumors.
Subject No. (11), person. Diagnosis: malignant lymphoma. The patient had received adramycin, vincristine, and hormonal treatment. The blood cell counts were decreased to: Hb: 78 g/L, WBC: 0.7×10^9 /L, platelet: 245×10^9 /L. 0.25 mg TPA was administered to the patient 4 times. The blood cell counts improved to: Hb: 76 g/L, WBC: 6.8×10^9 /L, platelet: 331×10^9 /L. Chemotherapy was then continued for 5 more days, and followed by one dose of 0.5 mg TPA. The WBC count was maintained at 3.0×10^9 /L. The patient is still receiving treatment.
Subject No. (12), person. Diagnosis: brain tumor. Blood profile after chemotherapy was: Hb: 119 g/L, WBC: 3.0×10^9 /L, platelet: 399×10^9 /L. 0.25 mg TPA was given to the patient once. On the day after the TPA treatment, the blood profile was Hb: 123 g/L, WBC: 4.5×10^9 /L, platelet: 436×10^9 /L. The patient received further chemotherapy.
Subject No. (13), person. Diagnosis: lung cancer. After chemotherapy, their blood cell counts were decreased to: Hb: 76 g/L, WBC: 0.9×10^9 /L, platelet: 100×10^9 /L. 0.25 mg TPA was given to the patient twice. On the day after the TPA treatment, Hb: 74 g/L, WBC: 2.5×10^9 /L, platelet: 110×10^9 /L. The patient is still receiving treatment.
Subject No. (14), person. Diagnosis: breast cancer. The WBC after chemotherapy was 3.8×10^9 /L. 0.25 mg of TPA was given to the patient once. The WBC on the day after the TPA treatment was 8.0×10^9 /L.
Subject No. (15), person. Diagnosis: Esophageal Cancer. Surgery was performed, followed by chemotherapy using cisplatin, 5-fluorouracil. Blood profile (before TPA): WBC: 2.4×10^9 /L; neutrophil: 83%, lymphocyte: 17%; platelet: 150×10^9 /L; RBC: 3.43×10^12 /L; Hb: 107 g/L. TPA dosage: 0.25 mg. […] The cardiac, hepatic, renal and pulmonary functions were normal.
Subject No. (16), person. Diagnosis: Esophageal Cancer. Surgery was performed, followed by chemotherapy using VP16, MTX, MMC and cisplatin. TPA dose: 0.25 mg. Blood profile (before TPA): WBC: 2.4×10^9 /L; neutrophil: 67%; lymphocyte: 23%; platelet: 101×10^9 /L; RBC: 3.45×10^12 /L; Hb: 114 g/L. Blood profile (one day after TPA): WBC: 5.2×10^9 /L; neutrophil: 87%; lymphocyte: 13%; platelet 60×10^9 /L; RBC: 3.76×10^12 /L; Hb: 122 g/L. Blood profile (2 days after TPA administration).
Subject No. (17), person. Diagnosis: breast cancer. Surgery was performed, followed by chemotherapy using CTX, MTX, and 5-FU. TPA dose: 0.25 mg×2 (Second dose was 4 days after 1st dose). […] The cardiac, hepatic, renal and pulmonary functions were normal.
Subject No. (18), person. Diagnosis: Colon cancer. Surgery was performed, followed by chemotherapy using Cisplatin, VP16, and 5-FU. TPA dose: 0.25 mg×2 (2nd TPA dose was administered 24 hrs after 1st TPA dose). […] Cardiac hepatic, renal and pulmonary functions were normal.
Subject No. (19), person. Diagnosis: lung cancer metastasized to adrenal gland. Surgery was performed, followed by chemotherapy using MMC, VCR, and CTX. TPA dosage: 0.25 mg×2 (2nd TPA dose was administered 24 hrs after 1st TPA dose). […] Cardiac, hepatic renal and pulmonary functions were normal.
Subject No. (20), person. Diagnosis: esophageal cancer metastasized to liver, lung and brain. The patient received chemotherapy using Taxol, cisplatin, 5-FU and Semustial. Total TPA dosage: 2mg. Blood profile (before TPA): WBC: 0.7×10^9 /L; neutrophil: 29%; lymphocyte: 71%; platelet: N/A; RBC: 2.82×10^12 /L; Hb: 87 g/L. TPA treatment schedule. On the first and third day, 0.25 mg was given and on the 5th, 7th and 9th day 0.5 mg of TPA was given. […] Cardiac, hepatic, renal and pulmonary functions were normal.
Subject No. (21), person. Diagnosis: lymphoma metastasized to bone marrow. […]

[1] = 2 days after second TPA dose (0.25 mg×2)
[2] = 2 days after single TPA 0.25 mg
[3] = 4 days after single TPA 0.25 mg
[4] = 7 days after single TPA 0.25 mg
[5] = one day after second TPA dose (0.25 mg×2)
[6] = one day after single TPA 0.25 mg
[7] = solid tumor patients after TPA 0.25 mg doses
[8] = subject 11, malignant lymphoma, after 0.25 mg TPA 4 times
[9] = subject 17, 3 days after first TPA dose 0.25 mg
[10] = subject 17, 4 days after second TPA dose 0.25 mg
[11] = subject 20, 11th day, TPA total 2 mg over 9 days
[12] = subject 20, day 2, TPA total 2 mg over 9 days

## CCCCCCCCCCCCCC(=O)O[C@@H]1[C@@H](C)[C@@]2(O)[C@@H](C=C(CO)C[C@]3(O)C(=O)C(C)=C[C@@H]23)[C@@H]2C(C)(C)[C@]12OC(C)=O [TPA, Phorbol 12-Myristate-13-Acetate]
[1]
  Hb: 101 g/L
  WBC: 3.8e+09 L⁻¹ and 5e+09 L⁻¹
  lymphocyte: 16% and 20%
  neutrophil: 84% and 80%
  platelet: 8.4e+10 L⁻¹
[2]
  Hb: 109 g/L and 116 g/L
  RBC: 2.99e+12 L⁻¹
  WBC: 4.5e+09 L⁻¹ and 5.6e+09 L⁻¹
  lymphocyte: 20% and 19%
  neutrophil: 80% and 81%
  platelet: 6.4e+10 L⁻¹
[3]
  Hb: 112 g/L and 129 g/L
  RBC: 3.36e+12 L⁻¹
  WBC: 4.4e+09 L⁻¹ and 3.9e+09 L⁻¹
  platelet: 1.05e+11 L⁻¹
[4]
  Hb: 118 g/L and 138 g/L
  neutrophil: 82% and 48%
After and during chemotherapy
  recovery of infection fighting cells: help speed the rapid recovery of the infection fighting cells
[5]
  Hb: 74 g/L and 112 g/L and 93 g/L
  RBC: 4.1 ×10^12
  neutrophil: 60% and 82%
  platelet: 1.1e+11 L⁻¹ and 1.98e+11 L⁻¹
[6]
  Hb: 123 g/L and 109 g/L and 122 g/L and 116 g/L and 139 g/L and 126 g/L and 120 g/L
  RBC: 3.33e+12 L⁻¹ and 3.76e+12 L⁻¹
  neutrophil: 94% and 87% and 79% and 53% and 60% and 90% and 83%
Patients receiving chemotherapy, often
  time of elevation of white blood cell count: within one day
[7]
  duration of fever: 4 h
  fever, temperature after TPA: 38 °C and 39.2 °C and 37.8 °C and 39 °C
Solid tumor patients after TPA, one subject per block
  cardiac, hepatic, renal and pulmonary functions: normal; also recorded: same as before TPA treatment; also recorded: functioning normally
Solid tumor patients undergoing chemotherapy, one subject per block
  Symptoms after TPA: Chill, fever, local irritation and slight headache; also recorded: chills, fever, local irritation; also recorded: Chills at 5th day which lasted about one hour; also recorded: No chills and fever, only local irritation; also recorded: No chills. Low fever; also recorded: Stomach ache and diarrhea (which disappeared soon after)
Subject 11, after 5 more days chemotherapy and one dose 0.5 mg TPA
  WBC count maintained: 3e+09 L⁻¹
[8]
  Hb: 76 g/L
  WBC: 6.8e+09 L⁻¹
  platelet: 3.31e+11 L⁻¹
[9]
  Hb: 107 g/L
  RBC: 3.36e+12 L⁻¹
  WBC: 2.9e+09 L⁻¹
  lymphocyte: 17%
  neutrophil: 83%
  platelet: 1.22e+11 L⁻¹
[10]
  Hb: 112 g/L
  RBC: 3.49e+12 L⁻¹
  WBC: 4.4e+09 L⁻¹
  lymphocyte: 14%
  neutrophil: 86%
  platelet: 1.93e+11 L⁻¹
Subject 17, TPA 0.25 mg×2
  duration of chills: 2 h
[11]
  Hb: 61 g/L
  RBC: 2.91e+12 L⁻¹
  WBC: 2.7e+09 L⁻¹
  lymphocyte: 15%
  neutrophil: 85%
  platelet: 3.76e+10 L⁻¹
[12]
  Hb: 72 g/L
  RBC: 2.17e+12 L⁻¹
  WBC: 9e+08 L⁻¹
